Test results as given in PMC5979965, “Structure-based discovery of mPGES-1 inhibitors suitable for preclinical testing in wild-type mice as a new generation of anti-inflammatory drugs” (Scientific Reports, 2018).
Where two headings read alike, the source gives them in different places.

What was measured:
human mPGES-1 = biological target: T1, human mPGES-1 (Homo sapiens, UniProt O14684); assay: Activity assay using recombinant human mPGES-1 (PGE2 enzyme immunoassay); assay type: biochemical
T1 construct: made in house; host or cells: FreeStyle 293-F cells, mPGES-1/pcDNA3 construct, crude microsomal preparation
T1 sequence (O14684 1-152): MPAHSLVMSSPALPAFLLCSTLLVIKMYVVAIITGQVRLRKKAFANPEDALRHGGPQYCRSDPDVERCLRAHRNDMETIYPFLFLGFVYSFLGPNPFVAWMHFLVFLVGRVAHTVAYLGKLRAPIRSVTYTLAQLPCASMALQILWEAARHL
Description: (§1) Our protocols for the protein preparation and in vitro activity assays were the same as described in previous reports[39],[41]–[43]. […] For the structure-activity relationship (SAR), we first investigated the impact of substitution on the central benzene ring on the inhibitory potency. […] The length of the alkoxy side chain was also inspected in compounds 4b and 6.
Purity was determined by HPLC (Waters 1525 Binary HPLC pump, Waters 2487 Dual λ Absorbance Detector, and Waters 717plus Autosampler, Milford, MA) at λ of […] using acetonitrile and 0.1% […]
TFA (70:30) as mobile phase.
(§2) 3. In vitro experimental tests
(§3) Preparation of mPGES-1 enzymes. Cloning of mPGES-1 and the protein preparation were described in our previous reports.15 Briefly, FreeStyle Max Expression system was used to express wild -type human and mouse mPGES-1 enzymes separately. FreeStyle 293-F cells were cultured following manufacturer’s manual in FreeStyle 293 expression medium on orbit rotate shaker in 8% CO 2 incubator at 37 °C. Cells were transfected with 1.5 µg/mL of mPGES-1/pcDNA3 construct using FreeStyle Max reagent at a cell density of 1 × 106 for 2 days. Transfected cells were collected, washed, and sonicated in TSES buffer (15 mM Tris-HCl, pH 8.0 plus 0.25 M sucrose, 0.1 mM EDTA and 1 mM DTT) on ice. The broken cells were first centrifuged at 12,500 × g for 10 min. The supernatant was further centrifuged at 105,000 × g for 1 hr at 4 °C. The pellet was washed and homogenized in PBS buffer. The crude microsomal mPGES -1 preparations were aliquoted and stored at -80 °C before use.
(§4) PGH2 (stored in dry ice). […] After 1
(§5) Following the formation of […]

mouse mPGES-1 [1] = biological target: T2, mouse mPGES-1 (Mus musculus, UniProt Q9JM51); assay: Activity assay using recombinant mouse mPGES-1 (PGE2 enzyme immunoassay); assay type: biochemical
T2 construct: made in house; host or cells: FreeStyle 293-F cells, mPGES-1/pcDNA3 construct, crude microsomal preparation
T2 sequence (Q9JM51 1-153): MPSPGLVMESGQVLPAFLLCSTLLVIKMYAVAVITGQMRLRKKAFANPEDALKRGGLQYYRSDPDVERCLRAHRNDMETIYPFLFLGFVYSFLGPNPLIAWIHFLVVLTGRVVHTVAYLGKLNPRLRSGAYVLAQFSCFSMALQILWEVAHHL
Source text: as §1, with “The central benzene rings of 4i was originated from salicylaldehydes with chlorine substituted on 5-position. […] The” for “The”
as §2, §3, §4, §5

mice [2] = assay: Acute toxicity/safety testing in mice after PO administration
Description: (§6) Animals. Wild-type CD-1 mice (28-35 g) were ordered from Harlan (Indianapolis, IN), and housed
(§7) for a week prior to the experimental studies. All animals were allowed ad libitum access to food and water
(§8) and maintained on a 12 h light/12 h dark cycle, with the lights on at 8:00 am at a room temperature of 21–
(§9) 22 °C. Experiments were performed in a same colony room in accordance with the Guide for the Care and
(§10) Use of Laboratory Animals as adopted and promulgated by the National Institutes of Health. The animal
(§11) protocol was approved by the IACUC (Institutional Animal Care and Use Committee) at the University
(§12) Preparation of pictures during acute toxicity testing. Mice were divided into three groups and
(§13) treated with oral administration of a single dose of vehicle (Wesson vegetable oil, Memphis, TN), 4b (250
(§14) mg/mL in Wesson vegetable oil at the dose of 1 g/kg), and celecoxib (12.5 mg/mL in Wesson vegetable

PGE2 levels in kidney = assay: Wild-type mice based air-pouch model of inflammation (carrageenan), PGE2 by ELISA; conditions: for PGE2 levels in mice (kidney): 24 hours, vs vehicle
mouse mPGES-1 [3] = biological target: T2, mouse mPGES-1; conditions: cited from earlier work
rat enzyme (mPGES-1) = conditions: cited from earlier work
mice [4] = conditions: mouse, in vivo, po, 50 mg/kg
Description: as §6, §7, §8, §9, §10, §11, §12, §13, §14

[5] = IC50 (nM) against mPGES-1, Mouse mPGES-1, Mean ± SD of measurements in triplicate

SMILES: O=C1NC(=O)C(=Cc2ccc(OCCCCC3CCCCC3)c(Cl)c2)C(=O)N1 [Compound 4b]
- IC50 (human mPGES-1): 33 ± 3 nM
- IC50 (mouse mPGES-1 [1]; [5]): 157 ± 31 nM
- bleeding spots on the inner side of stomach samples (mice [2]; 24 hr after PO, 1 g/kg in oil): did not find any bleeding spot
- toxic signs in mice (mice [2]; PO, high dose up to 1 g/kg, observation for 14 days): did not cause any toxic sign
- PGE2 levels in mice (kidney) (PGE2 levels in kidney; PO, 5 mg/kg single dose): significantly decreased
- PGE2 levels in mice (kidney) (PGE2 levels in kidney; PO, 10 mg/kg single dose): significantly decreased
- PGE2 levels in mice (kidney) (PGE2 levels in kidney; SC, 0.1 mg/kg single dose): significantly decreased
- PGE2 levels in mice (kidney) (PGE2 levels in kidney; SC, 1 mg/kg single dose): significantly decreased
- PGE2 levels in mice (kidney) (PGE2 levels in kidney; SC, 10 mg/kg single dose): significantly decreased
- oral bioavailability (PGE2 levels in kidney; inferred from PO activity in mice): orally bioavailable

SMILES: O=C1NC(=O)C(=Cc2cc(Cl)ccc2OCCCCC2CCCCC2)C(=O)N1 [Compound 4i]
- IC50 (human mPGES-1): 87 ± 27 nM
- IC50 (mouse mPGES-1 [1]; [5]): 19100 ± 3490 nM
- IC50 (mouse mPGES-1 [1]; IC50 against the mouse enzyme): > 10000 nM

SMILES: O=C1NC(=O)C(=Cc2ccc(OCCCC3CCCCC3)c(Cl)c2)C(=O)N1 [Compound 6]
- IC50 (human mPGES-1): 69 ± 16 nM
- IC50 (mouse mPGES-1 [1]; [5]): 292 ± 47 nM

SMILES: N#Cc1cccc(C#N)c1-c1nc2c3ccc(Cl)cc3c3ccccc3c2[nH]1 [MF63, 2-(6-chloro-1H-phenanthro[9,10-d]imidazol-2-yl)-isophthalonitrile]
- inhibition against mouse mPGES-1 at 10 µM (mouse mPGES-1 [1]; 10 µM): no significant inhibition
- activity against the mouse enzyme, previously reported (mouse mPGES-1 [3]): without significant activity
- activity against the rat enzyme, previously reported (rat enzyme (mPGES-1)): without significant activity

SMILES: CC(C)c1ccc2c(c1)c(SC(C)(C)C)c(CC(C)(C)C(=O)O)n2Cc1ccc(Cl)cc1 [MK-886, reference compound]
- inhibition of mouse mPGES-1 (mouse mPGES-1 [1]; concentration not given): without significant inhibition

SMILES: Cc1ccc(-c2cc(C(F)(F)F)nn2-c2ccc(S(N)(=O)=O)cc2)cc1 [celecoxib]
- bleeding spots on the inner side of stomach samples (mice [4]): at least one bleeding spot
- finding at gastric mucosa (mice [4]): bleeding ulcer was observed
- toxicity in mice (mice [4]): very toxic for stomach and other issues of mice
